Experimental data reported in ChEMBL document CHEMBL1159231, “Cyathocaline, an Azafluorenone Alkaloid from Cyathocalyx zeylanica” (J Nat Prod, 1995).
pIC50: −log10 of the molar value. Calls of active or inactive are those of the source. No cut-off for these calls is given here.

Tests used:
A549 = assay: Cytotoxicity against human A549 cells; format: functional, cell-based
Saccharomyces cerevisiae [1] = assay: DNA damaging activity against DNA repair-deficient yeast RS 321N mutant assessed as drug level required to produce 12 mm zone of inhibition; format: functional
Saccharomyces cerevisiae [2] = assay: DNA damaging activity against DNA repair rad 52Y gene-deficient yeast RS 322YK mutant assessed as drug level required to produce 12 mm zone of inhibition; format: functional
Saccharomyces cerevisiae [3] = assay: DNA damaging activity against DNA repair rad6 gene-deficient yeast RS 167N mutant; format: functional, organism-based
Saccharomyces cerevisiae [4] = assay: DNA damaging activity against wild type DNA repair-proficient yeast RS 188N (RAD+) assessed as drug level required to produce 12 mm zone of inhibition; format: functional

COc1c(O)cc2c(c1O)-c1nccc(C)c1C2=O [CYATHOCALINE]
pIC50 (A549): 5.07 | IC12 (Saccharomyces cerevisiae [1]): 87 µg/mL | IC12 (Saccharomyces cerevisiae [2]): 90 µg/mL | Activity (Saccharomyces cerevisiae [3]): inactive | IC12 (Saccharomyces cerevisiae [4]): > 400 µg/mL
